{
  "source": "patent US10914725B2",
  "about": "“Culture medium additive, culture medium composition, and method for culturing cells or tissue using same” (NISSAN CHEMICAL INDUSTRIES, LTD., priority 2015, dated 2021)",
  "format_in_all_cases": "cell-based",
  "key": {"[1]": {"system": "Human liver cancer cell line HepG2", "test": "Evaluation of hepatotoxic substance by high content analysis (Experimental Example 9)", "details": "for average cell number per sphere / average dead cell number in sphere / average sphere number per 20 mm^2 / projected area: 0.03 (w/v)% low-molecular agar medium, 2 days with flutamide", "method": "(§1) By a method similar to the preparation method of medium composition of Experimental Example 1, a medium composition containing 10 (v/v) % FBS and 0.03 (w/v) % of low-molecular agar (“ultraagar Ena”, manufactured by InaFood Industry) in DMEM (manufactured by Wako Pure Chemical Industries, Ltd.) was prepared. Human liver cancer cell line HepG2 (manufactured by DS PHARMA BIOMEDICAL CO., LTD.) was suspended in the above-mentioned medium composition containing low-molecular agar at 11,000 cells/mL. The above-mentioned cell suspension was dispensed to the wells of a 96 well flat bottom ultra-low attachment surface microplate (manufactured by Corning Incorporated, #3474) at 90 μL per 1 well, and the plate was cultured in a standing state in a CO2 incubator (37° C., 5% CO2) for 3 days. On day 3 of culture, flutamide (manufactured by Sigma-Aldrich) was added by 10 μL per 1 well. Successively, the plate was further cultured in a standing state in a CO2 incubator (37° C., 5% CO2) for 2 days. As a comparison control, HepG2 cells were suspended in DMEM containing 10 (v/v) % FBS and the suspension was dispensed to a 96 well flat bottom adhesion surface microplate (manufactured by Corning Incorporated, #3585), and a similar operation was performed.\nThen, a solution of […] of Hoechst 33342 (manufactured by Invitrogen) in DMEM (phenol red, L-glutamine free) (manufactured by Wako Pure Chemical Industries, Ltd.) was prepared, and added, at 10 μL per 1 well, to each culture after static culture for 5 days using the above-mentioned low-molecular agar-containing medium and comparison control, and the mixture was stood in a CO2 incubator (37° C., 5% CO2) for 45 min. Successively, a solution of 20 μg/mL Propidium Iodide (manufactured by BIOMOL) in DMEM (phenol red, L-glutamine free) (manufactured by Wako Pure Chemical Industries, Ltd.) was prepared and added at 10 μL per 1 well, and the culture medium was suspended. The plate was centrifuged at 1,500 rpm for 1 min, and high content analysis was performed by cell image analysis using a cell imaging apparatus (“ArrayScan VTI HCS Reader”, manufactured by Thermo Fisher Scientific). At that time, observation was performed with 20 fields of view per well using a ×10 objective lens, cell outline and cell nucleus were detected from Hoechst33342 fluorescence image, and dead cells were detected from propidium iodide fluorescence image. In addition, 50% inhibitory concentration (μM) of flutamide by high content analysis was calculated from the number of cells constituting the spheres, with the value without addition of flutamide as 0% sphere formation inhibitory rate.\n(§2) The number of constituent cells of HepG2 cell spheres, sphere number, projected area of sphere (size) (μm^2) and the dead cell number in the sphere, obtained from the cell imaging analysis, are shown in Table 26. Furthermore, the relative cell number when the amount of luminescence without addition of the anticancer agent is 100 was determined from the measurement results of the surviving cell number by luminescence, using the intracellular ATP as an index, and shown in Table 27. In addition, the 50% inhibitory concentration (μM) of flutamide calculated from the amount of luminescence based on intracellular ATP and constituent cell number obtained by high content analysis are shown in Table 28."}, "[2]": {"system": "Human liver cancer cell line HepG2", "test": "Evaluation of hepatotoxic substance by CellTiter-Glo cell survival assay (Experimental Example 9)", "details": "for IC50: Homo sapiens, HepG2, cell survival assay by luminescence, read-out: 50% inhibitory concentration", "method": "as §1\nCellTiter-Glo Luminescent Cell Viability Assay (manufactured by Promega) (100 μL) was added to the low-molecular agar-containing culture medium and comparison control, the mixture was stood for 10 min at room temperature, and the amount of luminescence was measured by a microplate reader (“FlexStation 3”, manufactured by Molecular Devices) and according to the protocol recommended by Promega. The amount of luminescence of the medium alone was subtracted, whereby the number of viable cells was measured. In addition, 50% inhibitory concentration (μM) of flutamide by the amount of luminescence was calculated with the number of viable cells when flutamide was not added as 0% inhibition rate.\nas §2"}, "[3]": {"system": "human ovarian cancer cell line SKOV3", "test": "Cell proliferation test by dispersing SKOV3 cells with growth factors (Experimental Example 4)", "details": "10 days", "method": "By a method similar to the preparation method of medium composition in Analysis Example 1, a medium composition containing 10 (v/v) % FBS, and 0.03 (w/v) % of low-molecular agar in DMEM (manufactured by Wako Pure Chemical Industries, Ltd.) was prepared.\nThen, human ovarian cancer cell line SKOV3 (manufactured by DS PHARMA BIOMEDICAL CO., LTD.) was suspended in the above-mentioned medium composition containing low-molecular agar at 37,000 cells/mL, and dispensed to the wells of a 96 well flat plane ultra-low attachment surface microplate (manufactured by Corning Incorporated, #3474) at 135 μL per 1 well. The plate was stood in a CO2 incubator (37° C., 5% CO2), and a growth factor was added the next day. A similar operation was performed with 10 (v/v) % FBS-containing DMEM free of low-molecular agar. As a growth factor, human heparin bindability epithelial cell growth factor (hHB-EGF) (manufactured by PeproTech, Inc.) at a final concentration of 30 ng/mL or 100 ng/mL, human epithelial cell growth factor (hEGF) (manufactured by PeproTech, Inc.) and human transforming growth factor α (hTGFα) (manufactured by PeproTech, Inc.) each at a final concentration of 1 ng/mL, 3 ng/mL or 10 ng/mL were added by 15 μL per 1 well.\nSuccessively, the plate was cultured in a standing state in a CO2 incubator (37° C., 5% CO2) for 10 days. As a negative control, DMEM in an amount equal to that of a growth factor was added. CellTiter-Glo Luminescent Cell Viability Assay (manufactured by Promega) (100 μL) was added to the cell culture medium after culturing for 10 days, stood for 10 min at room temperature, and the amount of luminescence was measured by a microplate reader (“FlexStation 3”, manufactured by Molecular Devices) and according to the protocol recommended by Promega. The amount of luminescence of the medium composition alone was subtracted, whereby the number of viable cells was measured.\nThe relative cell number when the amount of luminescence of the negative control is 1 was determined from the amount of luminescence (corresponding to the number of SKOV3 cells) after culturing for 10 days after the addition of the growth factor, and shown in Table 11."}},
  "data": [
    {"compound": "CC(C)C(=O)Nc1ccc([N+](=O)[O-])c(C(F)(F)F)c1", "note": "[flutamide]", "values": [
      {"measurement": "IC50", "setting": "[1]; Homo sapiens, HepG2, high content analysis by cell image analysis, number of cells constituting the spheres, low-molecular agar-containing medium, read-out: 50% inhibitory concentration", "value": 73.4, "unit": "µM"},
      {"measurement": "average cell number per sphere", "setting": "[1]; flutamide 0.8 μM", "value": 7.977},
      {"measurement": "average dead cell number in sphere", "setting": "[1]; flutamide 0.8 μM", "value": 0.06},
      {"measurement": "average sphere number per 20 mm^2", "setting": "[1]; flutamide 0.8 μM", "value": 190.7},
      {"measurement": "projected area", "setting": "[1]; flutamide 0.8 μM", "value": 1988, "unit": "μm^2"},
      {"measurement": "average cell number per sphere", "setting": "[1]; flutamide 4 μM", "value": 8.89},
      {"measurement": "average dead cell number in sphere", "setting": "[1]; flutamide 4 μM", "value": 0.037},
      {"measurement": "average sphere number per 20 mm^2", "setting": "[1]; flutamide 4 μM", "value": 145.3},
      {"measurement": "projected area", "setting": "[1]; flutamide 4 μM", "value": 2180, "unit": "μm^2"},
      {"measurement": "average cell number per sphere", "setting": "[1]; flutamide 20 μM", "value": 9.263},
      {"measurement": "average dead cell number in sphere", "setting": "[1]; flutamide 20 μM", "value": 0.067},
      {"measurement": "average sphere number per 20 mm^2", "setting": "[1]; flutamide 20 μM", "value": 129.7},
      {"measurement": "projected area", "setting": "[1]; flutamide 20 μM", "value": 2403, "unit": "μm^2"},
      {"measurement": "average cell number per sphere", "setting": "[1]; flutamide 100 μM", "value": 3.76},
      {"measurement": "average dead cell number in sphere", "setting": "[1]; flutamide 100 μM", "value": 0.007},
      {"measurement": "average sphere number per 20 mm^2", "setting": "[1]; flutamide 100 μM", "value": 153.7},
      {"measurement": "projected area", "setting": "[1]; flutamide 100 μM", "value": 861, "unit": "μm^2"},
      {"measurement": "average cell number per sphere", "setting": "[1]; flutamide 500 μM", "value": 1.567},
      {"measurement": "average dead cell number in sphere", "setting": "[1]; flutamide 500 μM", "value": 1.163},
      {"measurement": "average sphere number per 20 mm^2", "setting": "[1]; flutamide 500 μM", "value": 7.3},
      {"measurement": "projected area", "setting": "[1]; flutamide 500 μM", "value": 408, "unit": "μm^2"},
      {"measurement": "IC50", "setting": "[2]; comparison control (DMEM, 10% FBS, adhesion surface plate)", "value": 51.7, "unit": "µM"},
      {"measurement": "IC50", "setting": "[2]; low-molecular agar containing medium", "value": 53.6, "unit": "µM"},
      {"measurement": "relative cell number (no addition = 100)", "setting": "[2]; flutamide 0.8 μM, comparison control (DMEM, 10% FBS, adhesion surface plate)", "value": 100.2},
      {"measurement": "relative cell number (no addition = 100)", "setting": "[2]; flutamide 0.8 μM, low-molecular agar-containing medium", "value": 109.6},
      {"measurement": "relative cell number (no addition = 100)", "setting": "[2]; flutamide 4 μM, comparison control (DMEM, 10% FBS, adhesion surface plate)", "value": 109.6},
      {"measurement": "relative cell number (no addition = 100)", "setting": "[2]; flutamide 4 μM, low-molecular agar-containing medium", "value": 98.7},
      {"measurement": "relative cell number (no addition = 100)", "setting": "[2]; flutamide 20 μM, comparison control (DMEM, 10% FBS, adhesion surface plate)", "value": 93.5},
      {"measurement": "relative cell number (no addition = 100)", "setting": "[2]; flutamide 20 μM, low-molecular agar-containing medium", "value": 89.8},
      {"measurement": "relative cell number (no addition = 100)", "setting": "[2]; flutamide 100 μM, comparison control (DMEM, 10% FBS, adhesion surface plate)", "value": 22.5},
      {"measurement": "relative cell number (no addition = 100)", "setting": "[2]; flutamide 100 μM, low-molecular agar-containing medium", "value": 22.4},
      {"measurement": "relative cell number (no addition = 100)", "setting": "[2]; flutamide 500 μM, comparison control (DMEM, 10% FBS, adhesion surface plate)", "value": 15.4},
      {"measurement": "relative cell number (no addition = 100)", "setting": "[2]; flutamide 500 μM, low-molecular agar-containing medium", "value": 8.1}
    ]},
    {"compound": "hTGFα: human transforming growth factor α (PeproTech)", "values": [
      {"measurement": "relative cell number (negative control = 1)", "setting": "[3]; growth factor 1 ng/mL, low-molecular agar 0 (w/v)%", "value": 1.448},
      {"measurement": "relative cell number (negative control = 1)", "setting": "[3]; growth factor 1 ng/mL, low-molecular agar 0.03 (w/v)%", "value": 1.371},
      {"measurement": "relative cell number (negative control = 1)", "setting": "[3]; growth factor 3 ng/mL, low-molecular agar 0 (w/v)%", "value": 1.445},
      {"measurement": "relative cell number (negative control = 1)", "setting": "[3]; growth factor 3 ng/mL, low-molecular agar 0.03 (w/v)%", "value": 1.916},
      {"measurement": "relative cell number (negative control = 1)", "setting": "[3]; growth factor 10 ng/mL, low-molecular agar 0 (w/v)%", "value": 1.512},
      {"measurement": "relative cell number (negative control = 1)", "setting": "[3]; growth factor 10 ng/mL, low-molecular agar 0.03 (w/v)%", "value": 2.167}
    ]}
  ]
}
